{
  "source": "patent US9585871B2",
  "about": "“Method for treating and curing leishmaniosis using fexinidazole” (Merial Limited, priority 2013, dated 2017)",
  "key": {"L. infantum": {"tested_on": "L. infantum", "test": "Clinical study in dogs infected with L. infantum: IFAT antibody titers", "type": "in vivo", "details": "Glucantime 100 mg/kg dNMA SC or Fexinidazole 60 mg/kg PO once daily Days 0-27", "experimental": "In a clinical study, dogs infected with L. infantum were treated with meglumine antimoniate (GLUCANTIME®, Merial) as a positive control, or FEX (Table 5). Eight blocks of two animals were formed based antibody titers and biological scores. Six dogs in each group were naturally infected by housing them in an endemic area for two years and two dogs in each group were artificially infected by intravenous administration of a known quantity of parasites recovered from the spleen of an infected dog.\nThe first group (FEX) was compared to the second group, which was treated with 27 mg/kg GLUCANTIME (meglumine antimoniate, or 100 mg/kg of dNMA) “GLU”), over 28 days.\nVariables. The Clinical Score is an additive score of various clinical signs (body condition, lymphadenopathy, splenomegaly, appetite, behavior, mucous membrane color, dermatopathology, ocular signs, digestive signs, arthropathy) evaluated before treatment and on Days 7, 14, 21, 28, 57, 184, 219, 254, 282, 310, 345, 400 and 436. The Overall Biological Score is an additive score based on the severity of changes in hematology/chemistry values (creatinine, urine protein/creatinine, Hct, globulin, ALAT), evaluated pretreatment and on Days 28, 57, and 181. The L. infantum immunofluorescent antibody titers (IFAT) were determined from samples collected before treatment and on Days 28, 57, and 181. Finally, quantitative PCR (qPCR) for L. infantum was conducted on spleen aspirates collected before treatment and on Days 28, 57, 142, 184, and 373."}, "[1]": {"test": "Multiple dosing study in dogs: systemic exposure (plasma) to fexinidazole and its metabolites", "type": "in vivo, dog", "details": "for concentration at 0 h / concentration at 0.5 h / concentration at 1 h / concentration at 2 h / concentration at 4 h / concentration at 8 h / concentration at 24 h / Cmax / Tmax / AUC(0-t): dog, plasma; for concentration at 0 h / concentration at 0.5 h / concentration at 1 h / concentration at 2 h / concentration at 4 h / concentration at 8 h / concentration at 24 h: oral, read-out: Average plasma concentrations of fexinidazole; for concentration at 2 h: Day 1, 2 hours; for concentration at 4 h: Day 1, 4 hours; for concentration at 8 h: Day 1, 8 hours; for concentration at 24 h: Day 1, 24 hours; for Cmax / Tmax / AUC(0-t): female, po, Female Dog, n = 3; for AUC(0-t): read-out: AUC0-t (last)", "experimental": "In an embodiment, the fexinidazole may be administered to the canine as an aqueous oral suspension, comprising 5% TWEEN 80 and 0.5% Methyl cellulose 400 cP (METHOCEL). Provided in this format, fexinidazole suspensions of 5, 20, and 80 mg fexinidazole/mL may be prepared such that 10 mL of each concentration contains 50, 200, and 800 mg fexinidazole, respectively.\nMoreover, inventors expect that a wide variety of dosing regimens are now available to the skilled person to achieve the necessary and sufficient fexinidazole plasma levels. For example, and as further outlined in the Examples below, any dosing regimen that produces substantially similar fexinidazole plasma levels, as compared to those levels produced by giving the dogs about 60 mg/kg/day for about twenty-eight days, is expected to substantially or completely eliminate the Leishmania parasites. Table 1 presents the systemic fexinidazole exposure following dosing of dogs with 50, 200, and 800 mg/kg/day."}, "[2]": {"details": "50 mg/kg/day, 50 mg/kg/day oral"}, "[3]": {"details": "200 mg/kg/day, 200 mg/kg/day oral"}, "[4]": {"details": "50 mg/kg/day, 50 mg/kg/day oral, D1, mean ± SD"}, "[5]": {"details": "50 mg/kg/day, 50 mg/kg/day oral, D14, mean ± SD"}},
  "note": "Values joined by “and” are separate entries in the source; they are usually repeats but may differ in a detail not shown here. Equal entries are not always repeated. Where two headings read alike, the source gives them in different places.",
  "data": [
    {"smiles": "CSc1ccc(OCc2ncc([N+](=O)[O-])n2C)cc1", "note": "[Fexinidazole, fexinidazole]", "values": [
      {"measurement": "L. infantum IFAT Antibody Titers", "setting": "L. infantum; Day 28, individual dogs", "value": "1/80"},
      {"measurement": "L. infantum IFAT Antibody Titers", "setting": "L. infantum; Day 57, individual dogs", "value": "1/640 (2×) and 1/320 and 1/80"},
      {"measurement": "L. infantum IFAT Antibody Titers", "setting": "L. infantum; Day 181, individual dogs", "value": "1/640 (2×) and 1/320 and 1/80"},
      {"measurement": "Average plasma concentrations of fexinidazole", "setting": "[1]; 50 mg/kg/day oral, Day 14, 2 hours", "value": 26.8, "unit": "ng/mL"},
      {"measurement": "Average plasma concentrations of fexinidazole", "setting": "[1]; 50 mg/kg/day oral, Day 14, 4 hours", "value": "~9", "unit": "ng/mL"},
      {"measurement": "Average plasma concentrations of fexinidazole", "setting": "[1]; 50 mg/kg/day oral, Day 14, 8 hours", "value": "<5", "unit": "ng/mL"},
      {"measurement": "Average plasma concentrations of fexinidazole", "setting": "[1]; 50 mg/kg/day oral, Day 14, 24 hours", "value": "<5", "unit": "ng/mL"},
      {"measurement": "Average plasma concentrations of fexinidazole", "setting": "[1]; 50 mg/kg/day oral, Day 28, 0 hours", "value": "<5", "unit": "ng/mL"},
      {"measurement": "Average plasma concentrations of fexinidazole", "setting": "[1]; 50 mg/kg/day oral, Day 28, 1 hour", "value": 28.3, "unit": "ng/mL"},
      {"measurement": "Average plasma concentrations of fexinidazole", "setting": "[1]; 50 mg/kg/day oral, Day 28, 2 hours", "value": 17.5, "unit": "ng/mL"},
      {"measurement": "Average plasma concentrations of fexinidazole", "setting": "[1]; 50 mg/kg/day oral, Day 28, 4 hours", "value": 14.3, "unit": "ng/mL"},
      {"measurement": "Average plasma concentrations of fexinidazole", "setting": "[1]; 50 mg/kg/day oral, Day 28, 8 hours", "value": "~5", "unit": "ng/mL"},
      {"measurement": "Average plasma concentrations of fexinidazole", "setting": "[1]; 50 mg/kg/day oral, Day 28, 24 hours", "value": "<5", "unit": "ng/mL"},
      {"measurement": "Average plasma concentrations of fexinidazole", "setting": "[1]; 200 mg/kg/day oral, Day 14, 2 hours", "value": 70.2, "unit": "ng/mL"},
      {"measurement": "Average plasma concentrations of fexinidazole", "setting": "[1]; 200 mg/kg/day oral, Day 14, 4 hours", "value": 27.6, "unit": "ng/mL"},
      {"measurement": "Average plasma concentrations of fexinidazole", "setting": "[1]; 200 mg/kg/day oral, Day 14, 8 hours", "value": 13.5, "unit": "ng/mL"},
      {"measurement": "Average plasma concentrations of fexinidazole", "setting": "[1]; 200 mg/kg/day oral, Day 14, 24 hours", "value": 10.2, "unit": "ng/mL"},
      {"measurement": "Average plasma concentrations of fexinidazole", "setting": "[1]; 200 mg/kg/day oral, Day 28, 0 hours", "value": "<5", "unit": "ng/mL"},
      {"measurement": "Average plasma concentrations of fexinidazole", "setting": "[1]; 200 mg/kg/day oral, Day 28, 1 hour", "value": 65.4, "unit": "ng/mL"},
      {"measurement": "Average plasma concentrations of fexinidazole", "setting": "[1]; 200 mg/kg/day oral, Day 28, 2 hours", "value": 44.6, "unit": "ng/mL"},
      {"measurement": "Average plasma concentrations of fexinidazole", "setting": "[1]; 200 mg/kg/day oral, Day 28, 4 hours", "value": 23.5, "unit": "ng/mL"},
      {"measurement": "Average plasma concentrations of fexinidazole", "setting": "[1]; 200 mg/kg/day oral, Day 28, 8 hours", "value": 12.4, "unit": "ng/mL"},
      {"measurement": "Average plasma concentrations of fexinidazole", "setting": "[1]; 200 mg/kg/day oral, Day 28, 24 hours", "value": 12.4, "unit": "ng/mL"},
      {"measurement": "concentration at 0 h", "setting": "[1]; 50 mg/kg/day, 50 mg/kg/day oral, Day 1, 0 hours", "value": "< 5", "unit": "ng/mL"},
      {"measurement": "concentration at 0.5 h", "setting": "[1]; 50 mg/kg/day, 50 mg/kg/day oral, Day 1, 0.5 hours", "value": 34.5, "unit": "ng/mL"},
      {"measurement": "concentration at 1 h", "setting": "[1]; 50 mg/kg/day, 50 mg/kg/day oral, Day 1, 1 hour", "value": 30.3, "unit": "ng/mL"},
      {"measurement": "concentration at 2 h", "setting": "[1]; [2]", "value": 23.8, "unit": "ng/mL"},
      {"measurement": "concentration at 4 h", "setting": "[1]; [2]", "value": 12.6, "unit": "ng/mL"},
      {"measurement": "concentration at 8 h", "setting": "[1]; [2]", "value": "< 5", "unit": "ng/mL"},
      {"measurement": "concentration at 24 h", "setting": "[1]; [2]", "value": "< 5", "unit": "ng/mL"},
      {"measurement": "concentration at 0 h", "setting": "[1]; 50 mg/kg/day, 50 mg/kg/day oral, Day 14, 0 hours", "value": "< 5", "unit": "ng/mL"},
      {"measurement": "concentration at 0.5 h", "setting": "[1]; 50 mg/kg/day, 50 mg/kg/day oral, Day 14, 0.5 hours", "value": 28.8, "unit": "ng/mL"},
      {"measurement": "concentration at 1 h", "setting": "[1]; 50 mg/kg/day, 50 mg/kg/day oral, Day 14, 1 hour", "value": 29.5, "unit": "ng/mL"},
      {"measurement": "concentration at 0 h", "setting": "[1]; 200 mg/kg/day, 200 mg/kg/day oral, Day 1, 0 hours", "value": "< 5", "unit": "ng/mL"},
      {"measurement": "concentration at 0.5 h", "setting": "[1]; 200 mg/kg/day, 200 mg/kg/day oral, Day 1, 0.5 hours", "value": 52.1, "unit": "ng/mL"},
      {"measurement": "concentration at 1 h", "setting": "[1]; 200 mg/kg/day, 200 mg/kg/day oral, Day 1, 1 hour", "value": 61.3, "unit": "ng/mL"},
      {"measurement": "concentration at 2 h", "setting": "[1]; [3]", "value": 45.9, "unit": "ng/mL"},
      {"measurement": "concentration at 4 h", "setting": "[1]; [3]", "value": 22.6, "unit": "ng/mL"},
      {"measurement": "concentration at 8 h", "setting": "[1]; [3]", "value": 9.9, "unit": "ng/mL"},
      {"measurement": "concentration at 24 h", "setting": "[1]; [3]", "value": 13, "unit": "ng/mL"},
      {"measurement": "concentration at 0 h", "setting": "[1]; 200 mg/kg/day, 200 mg/kg/day oral, Day 14, 0 hours", "value": 16.6, "unit": "ng/mL"},
      {"measurement": "concentration at 0.5 h", "setting": "[1]; 200 mg/kg/day, 200 mg/kg/day oral, Day 14, 0.5 hours", "value": 53.4, "unit": "ng/mL"},
      {"measurement": "concentration at 1 h", "setting": "[1]; 200 mg/kg/day, 200 mg/kg/day oral, Day 14, 1 hour", "value": 63.2, "unit": "ng/mL"},
      {"measurement": "Metabolism", "setting": "[1]; dogs, after single and repeated administration", "value": "extensively metabolized to the sulfone and sulfoxide derivatives"},
      {"measurement": "Cmax", "setting": "[1]; [4]", "value": "42.4 ± 10.6", "unit": "ng/mL"},
      {"measurement": "Tmax", "setting": "[1]; [4]", "value": "1 ± 0.87", "unit": "h"},
      {"measurement": "AUC(0-t)", "setting": "[1]; [4]", "value": "237 ± 105", "unit": "ng·h/mL"},
      {"measurement": "Cmax", "setting": "[1]; [5]", "value": "41.9 ± 2.2", "unit": "ng/mL"},
      {"measurement": "Tmax", "setting": "[1]; [5]", "value": "1.67 ± 0.58", "unit": "h"},
      {"measurement": "AUC(0-t)", "setting": "[1]; [5]", "value": "246 ± 117", "unit": "ng·h/mL"}
    ]}
  ]
}
